PMC3720870, “Chiral Hydroxylation at the Mononuclear Nonheme Fe(II) Center of 4-(S) Hydroxymandelate Synthase – A Structure-Activity Relationship Analysis” (PLoS ONE, 2013)

Biological target: T1, Hms (Streptomyces coelicolor, UniProt Q9Z4X7)
T1 construct: gene SCO3229; full-length, C-terminal Strep-tag II kept, expressed in E. coli BL21(DE3) from pKYB1; monomer, ~45 kDa
T1 sequence (Q9Z4X7 1-371): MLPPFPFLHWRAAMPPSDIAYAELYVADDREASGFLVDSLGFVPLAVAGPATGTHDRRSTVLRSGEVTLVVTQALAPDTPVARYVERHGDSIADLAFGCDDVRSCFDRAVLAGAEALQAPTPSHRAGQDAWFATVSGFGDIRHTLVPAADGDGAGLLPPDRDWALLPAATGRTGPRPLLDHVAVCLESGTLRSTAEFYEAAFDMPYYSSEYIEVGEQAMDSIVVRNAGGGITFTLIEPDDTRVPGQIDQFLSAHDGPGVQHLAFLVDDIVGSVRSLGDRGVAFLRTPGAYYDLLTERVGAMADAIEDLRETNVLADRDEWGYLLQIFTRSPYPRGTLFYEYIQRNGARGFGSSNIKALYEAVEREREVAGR
Assay: O2 consumption, micro-optode, steady state
Format: biochemical
Conditions: apparent constant at air saturation; 20 mM Tris/HCl pH 7.5, 25 °C; no added Fe(II)

O=C(O)C(=O)CCc1ccccc1 [OPB, 2-Oxo-4-phenylbutanoic acid]
Km: 35 ± 20 µM

O=C(O)C(=O)Cc1ccccc1 [PP, Phenylpyruvic acid]
Km: 353 ± 87 µM

COc1ccc(CC(=O)C(=O)O)cc1 [VII, p-Methoxyphenylpyruvic acid]
Km: 160 ± 70 µM
